In patent US20260232767A1, “INTERLEUKIN-23 RECEPTOR ANTAGONIST PEPTIDES FOR USE IN THE TREATMENT OF PSORIASIS” (Janssen Pharmaceutica NV, priority 2023, published 2026):
Like-named read-outs stand apart in the source and are kept apart here.

Assays:
[1] = system: subjects with moderate-to-severe plaque psoriasis; assay: Treatment disposition, Example 2; assay type: in vivo, human
[2] = system: subjects with moderate-to-severe plaque psoriasis; assay: PSSD symptoms and signs scores, Example 1; assay type: in vivo, human; conditions: each dose group vs placebo; Week 16
Text: The Psoriasis Symptom and Sign Diary (PSSD) includes patient-reported outcome (PRO) questionnaires designed to measure the severity of psoriasis symptoms and signs for the assessment of treatment benefit. This study uses a 7-day recall version of the PSSD that asks the participant to answer the questions thinking about the last 7 days. The PSSD is a self-administered PRO instrument and includes 11 items covering symptoms (itch, pain, stinging, burning, and skin tightness) and patient-observable signs (skin dryness, cracking, scaling, shedding or flaking, redness, and bleeding) using 0 to 10 numerical rating scales for severity. Two subscores will be derived each ranging from 0 to 100: the psoriasis symptom score and the psoriasis sign score. A higher score indicates more severe disease.
Efficacy, PK, immunogenicity, biomarker, pharmacogenomic, and safety criteria were measured during the treatment. Subjects were provided with an electronic device to enter patient-reported outcome (PRO) data at each study visit. All visit-specific PRO assessments were conducted/completed before any tests, procedures or other clinical assessments, with the exception of the urine pregnancy test and urinalysis, to prevent influencing subject perceptions.

[3] = system: neutralizing antibodies to the IL-23 receptor antagonist peptide; conditions: through Week 16
[4] = 25 mg BID, Week 16 to Week 52, N=40
[5] = 25 mg BID, through Week 52, N=41
[6] = 25 mg QD, Week 16 to Week 52, N=35
[7] = 25 mg QD, through Week 52, N=43
[8] = 50 mg QD, through Week 52, N=43
[9] = 100 mg BID, through Week 52, N=42
[10] = 100 mg QD, Week 16 to Week 52, N=40
[11] = 100 mg QD, through Week 52, N=43
[12] = Combined, Week 16 to Week 52, N=227
[13] = Combined, through Week 52, N=247

In the case of `CC(=O)NCCCC[C@@H]1NC(=O)[C@H](Cc2c[nH]c3c(C)cccc23)NC(=O)[C@H]([C@@H](C)O)NC(=O)[C@H](CC(N)=O)NC(=O)[C@@H](NC(C)=O)C(C)(C)SSC(C)(C)[C@@H](C(=O)N[C@@H](Cc2ccc(OCCN)cc2)C(=O)N[C@@H](Cc2ccc3ccccc3c2)C(=O)NC2(C(=O)N[C@@H](CCC(=O)O)C(=O)N[C@@H](CC(N)=O)C(=O)N[C@@H](Cc3cccnc3)C(=O)N(C)CC(N)=O)CCOCC2)NC1=O` [IL-23 receptor antagonist peptide, Ac-[Pen]*-N-T-[W(7-Me)]-[Lys(Ac)]-[Pen]*-Phe[4-(2-aminoethoxy)]-[2-Nal]-[THP]-E-N-[3-Pal]-Sarc-NH2 (*[Pen]-[Pen]* formdisulfidebond)], the “Discontinued: Adverse Event, %” value [1, 4] is reported as “(2.5%)”, the “Discontinued: Other Adverse Event, %” value [1, 4] is reported as “(2.5%)” and the “Discontinued: Adverse Event, %” value [1, 5] is reported as “(2.4%)”. The “Discontinued: Other Adverse Event, %” value [1, 5] was “(2.4%)”, the “Discontinued: Adverse Event, %” value [1, 6] was “(2.9%)” and the “Discontinued: Other Adverse Event, %” value [1, 6] was “(2.9%)”. The “Discontinued: Adverse Event, %” value [1, 7] was “(7.0%)”, the “Discontinued: Other Adverse Event, %” value [1, 7] was “(7.0%)” and the “Discontinued: Adverse Event, %” value [1, 8] was “(4.7%)”. The “Discontinued: Other Adverse Event, %” value [1, 8] was “(4.7%)”, the “Discontinued: Adverse Event, %” value [1, 9] was “(2.4%)” and the “Discontinued: Other Adverse Event, %” value [1, 9] was “(2.4%)”. For the same compound, the “Discontinued: Adverse Event, %” value [1, 10] was “(2.5%)”, the “Discontinued: Other Adverse Event, %” value [1, 10] was “(2.5%)” and the “Discontinued: Adverse Event, %” value [1, 11] was “(4.7%)”. For the same compound, the “Discontinued: Other Adverse Event, %” value [1, 11] was “(4.7%)”, the “Discontinued: Adverse Event, %” value [1, 12] was “(1.3%)” and the “Discontinued: Other Adverse Event, %” value [1, 12] was “(1.3%)”. For the same compound, the “Discontinued: Adverse Event, %” value [1, 13] was “(3.6%)”, the “Discontinued: Other Adverse Event, %” value [1, 13] was “(3.6%)” and the “Improvement (reduction) in PSSD signs score from baseline” value [2] was “significantly greater improvement”. The “Improvement (reduction) in PSSD symptoms score from baseline” value [2] was “significantly greater improvement”, the “Subjects negative for neutralizing antibodies, %” value (“Subjects negative … %” below) ([3]; 25 mg QD, 1 evaluable) was “(100%)” and the “Subjects negative … %” value ([3]; 50 mg QD, 1 evaluable) was “(100%)”. For the same compound, the “Subjects negative … %” value ([3]; 100 mg BID, 3 evaluable) was “(100%)”, the “Subjects negative … %” value ([3]; 100 mg QD, 3 evaluable) was “(100%)” and the “Subjects negative … %” value ([3]; Combined doses, 8 evaluable) was “(100%)”. The “NAb result of ADA-positive samples” value [3] was “negative”.
